# Assay results from patent US20160287624A1, “Water-Soluble Vitamins to Increase Oral Absorption and Bioavailability” (NESTEC S.A., priority 2013, published 2016).
# Tests used:
# [1] = tested on: Caco-2 cell monolayer; assay: Absorption assessment in Caco-2 cell monolayer (A->B permeability)
# Source text: (§1) A Caco-2 cellular model was used to study the effect of the stevia solubilizer on the intestinal absorption of vitamin B12. The Caco-2 cell monolayer model is the pharmaceutical industry standard for predicting human oral absorption. The test samples included:
# [2] = rat, in vivo, po
# Method: Rats (n=6 per group) were orally administered at a dose equivalent to 2 mg/70 kg person in a free form (unformulated control F4) or a formulation of Formula 1 (API:Stevia at 1:25 w/w), Formula 2 (API:Stevia at 1:50 w/w), or Formula 3 (API:Stevia at 1:125 w/w).
# To answer the question whether the solubilizer enhanced the absorption of vitamin B12, the four formulations were assessed in a Sprague Dawley rat model at the vitamin B12 dose equivalent to 1 mg/70 kg person. Each group (formulation) had 6 rats (n=6). Each rat was orally gavaged and blood collected at 11 time points during a 12-hour period. The plasma samples were stored in a freezer prior to vitamin B12 analyses. Relative bioavailability was calculated by comparing the area under the time-concentration curves of formulated over the unformulated control.
# Vitamin B12 in rat plasma over time after oral gavage with baseline normalized for all treatments were analyzed by a radioimmunoassay method. The vitamin B12 in rat plasma over a 12-hr period at 15, 30, 45, 60, 90 min, and 2, 2.5, 4, 6, 8, and 12 h after oral gavage at a dose equivalent to 2 mg/70 kg person in a free form (unformulated control) or a formulated form of Formula 1 (vitamin B12:stevia at 1:25 w/w), Formula 2 (vitamin B12:stevia at 1:50 w/w), or Formula 3 (vitamin B12:stevia at 1:125 w/w) were analyzed.
# [3] = Stability of vitamin B12 in simulated gastric fluid (HPLC-UV); assay type: physicochemical; details: 37° C.
# Method: The pH of simulated gastric fluid was measured. […] The solutions were incubated at 37° C. in the water bath of a shaker operated at 50 rpm. After 2 hrs. of incubation, 1 mL solution was taken for HPLC analysis.
# The pure vitamin B12 (F4) was also reconstituted in gastric fluid as an unformulated control. Both sample solutions were made to contain 20 μg/ml vitamin B12, wrapped with aluminum foil to avoid exposure to light, and incubated at 37° C. for two hours. The solutions were then stored in a freezer for 22 hrs. The frozen samples were thawed to room temp before HPLC-UV analysis.
# [4] = Absorption assessment in Caco-2 cell monolayer (A->B permeability); details: human, Caco-2, Mean A->B Papp, assay duration 2 hr; controls 10 μM, formulations analyte test conc. 20 μg/mL
# Source text: as §1
SMILES,Permeability across Caco-2 cell monolayer [1],"Mean A->B Papp ([1]; assay duration 2 hr, controls 10 μM, formulations analyte test conc. 20 μg/mL)",Time during which vitamin B12 in plasma was detected [2] [min],Tmax (the time at which Cmax is reached) [2] [h],"Stability of vitamin B12 in gastric fluid ([3]; over a two hour period, 20 μg/ml)","R.E. (relative error) 2 hr ([3]; simulated gastric fluid, 2 hr) [%]","Determined Concentration 2 hr ([3]; simulated gastric fluid, 2 hr, 0 hr 20.2 μg/mL) [µg/mL]","Papp A→B at 2 h, 10 μM [4] [×10⁻⁶ cm/s]"
"C/C1=C2/[N-][C@H]([C@H](CC(N)=O)[C@@]2(C)CCC(=O)NC[C@@H](C)OP(=O)([O-])O[C@H]2[C@@H](O)[C@@H](n3cnc4cc(C)c(C)cc43)O[C@@H]2CO)[C@]2(C)N=C(/C(C)=C3N=C(/C=C4N=C1[C@@H](CCC(N)=O)C\4(C)C)[C@@H](CCC(N)=O)[C@]\3(C)CC(N)=O)[C@@H](CCC(N)=O)[C@]2(C)CC(N)=O.[CH3-].[Co+3] [Formula F4, methylcobalamin]",not permeable,<LLOQ^c,480,1.5,stable,3.7,21.0,
CNC(=C[N+](=O)[O-])NCCSCc1ccc(CN(C)C)o1 [Ranitidine],,,,,,,,0.3
